Experimental data published in patent publication US10221179B2, “Substituted pyrazoloquinazolinones and pyrroloquinazolinones as allosteric modulators of group II metabotropic glutamate receptors” (DOMAIN THERAPEUTICS, priority 2014, dated 2019).

Legend:
[1] = biological target: T1, human mGluR2 (hmGluR2) (Homo sapiens, UniProt Q14416); experiment: Ca++ functional assay, human mGluR2 transiently over-expressed in HEK-293 cells (agonist and negative allosteric modulator modes); type: cell-based; settings: glutamate at EC80, intracellular calcium (Fluo4AM), read-out: hmGluR2 negative allosteric modulator activity IC50
T1 construct: expressed in transfected cells; host or cells: HEK-293 cells, transient co-transfection by electroporation
Procedure: Example 127: Human mGluR2 and mGluR3 Evaluation Using Ca^++ Functional Assay
Examples of the present invention were tested successively for their agonist and negative allosteric modulator activities on human mGluR2 (hmGluR2) and mGluR3 (hmGluR3) transiently over-expressed in HEK-293 cells.
Cell Culture and Transfection
HEK-293 cells are maintained in Modified Eagle's Medium supplemented with 10% Foetal Calf Serum, 1% Penicillin/Streptomycin and 1% non-essential amino acids at 37° C./5% CO2.
Cells are co-transfected by electroporation with four DNA plasmids encoding hmGluR2 or hmGluR3, a chimeric G protein allowing redirection of the activation signal to intracellular calcium pathway (Brabet I et al., Neuropharmacology 37(8), 1043-51, 1998), and two glutamate transporters minimizing receptor desensitization by endogenous glutamate. After transfection, cells are cultured for 24 h at 37° C./5% CO2.
Calcium Assay IC50 Determination
Receptor activity is detected by changes in intracellular calcium measured using the fluorescent Ca^2+ sensitive dye, Fluo4AM (Molecular Probes).
On the day of the assay, culture medium is aspirated and replaced during 3 hours by medium without serum supplemented with 1% Glutamax, 1% Penicillin/Streptomycin and 1% non-essential amino acids. Then, cells are washed with freshly prepared buffer B (HBSS 1×(PAA), Hepes 20 mM, MgSO4-7H2O 1 mM, Na2CO3 3.3 mM, CaCl2-2H2O 1.3 mM, 0.1% BSA, Probenecid 2.5 mM) and loaded at 37° C. in 5% CO2 for 1.5 hours with buffer B containing 1 μM Fluo4AM, 0.1 mg/mL Pluronic Acid, 7 μg/mL Glutamate Pyruvate Transaminase and 2 mM sodium pyruvate. Afterwards cells are washed twice with buffer B. Then cells are detached using StemPro Accutase (Fischer Scientific), resuspended in buffer B and seeded in 384 well plate at a density of 30,000 cells per well. Addition of compounds and intracellular Ca^2+ measurements (excitation 485 nm, emission 525 nm) are performed by the fluorescence microplate reader FLIPRTetra (Molecular Devices).
Agonist and negative allosteric modulator activities of compounds are consecutively evaluated on the same cell plate. […] Then, cells are stimulated by an EC80 glutamate concentration and fluorescence is recorded for additional 3 minutes. EC80 glutamate concentration is the concentration giving 80% of the maximal glutamate response. Agonist or negative allosteric modulator activity(ies) are evaluated in comparison to basal signals evoked by buffer B or EC80 glutamate alone, respectively.
For IC50 determination, a dose-response test is performed using 20 concentrations (ranging over 6 logs) of each compound. Dose-response curves are fitted using the sigmoidal dose-response (variable slope) analysis in GraphPad Prism program (Graph Pad Inc) and IC50 of negative allosteric modulator activity is calculated. Dose-response experiments are performed in duplicate, two times independently.

T1 sequence (Q14416 19-872): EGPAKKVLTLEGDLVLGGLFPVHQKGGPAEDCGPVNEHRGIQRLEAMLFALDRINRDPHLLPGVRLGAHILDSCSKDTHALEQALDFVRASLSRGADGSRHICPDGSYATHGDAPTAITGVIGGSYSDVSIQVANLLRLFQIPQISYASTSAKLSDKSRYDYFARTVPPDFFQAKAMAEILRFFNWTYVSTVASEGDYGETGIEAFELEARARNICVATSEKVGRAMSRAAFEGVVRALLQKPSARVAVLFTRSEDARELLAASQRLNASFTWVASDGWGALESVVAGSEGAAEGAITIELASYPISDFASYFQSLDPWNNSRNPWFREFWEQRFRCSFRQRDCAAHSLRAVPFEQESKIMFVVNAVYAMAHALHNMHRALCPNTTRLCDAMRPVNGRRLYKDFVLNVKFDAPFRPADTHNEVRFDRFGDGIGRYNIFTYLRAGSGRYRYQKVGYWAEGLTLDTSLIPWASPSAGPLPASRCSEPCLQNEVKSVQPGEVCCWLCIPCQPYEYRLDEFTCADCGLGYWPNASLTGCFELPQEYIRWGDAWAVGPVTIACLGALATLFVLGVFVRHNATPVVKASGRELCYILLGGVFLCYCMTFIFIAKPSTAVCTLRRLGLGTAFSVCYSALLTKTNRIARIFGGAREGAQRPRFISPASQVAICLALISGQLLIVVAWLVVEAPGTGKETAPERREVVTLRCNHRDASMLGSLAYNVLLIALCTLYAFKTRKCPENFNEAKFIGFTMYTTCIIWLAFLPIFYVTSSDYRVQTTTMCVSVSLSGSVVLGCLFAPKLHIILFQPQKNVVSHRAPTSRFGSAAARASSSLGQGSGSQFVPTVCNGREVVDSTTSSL

Compound	IC50 [1] [nM]	melting point [°C]
Cc1cc(-c2cc3n(C)c(=O)c4ccccc4n3n2)ccn1 [Example 2, 4-methyl 2-(2-methyl-pyridin-4-yl)-4H-pyrazolo[1,5-a]quinazolin-5-one]	< 1000	
CCc1cc(-c2cc3n(C)c(=O)c4ccccc4n3n2)ccn1.Cl [Example 3, 2-(2-Ethyl-pyridin-4-yl)-4-methyl-4H-pyrazolo[1,5-a]quinazolin-5-one]	< 1000	> 250
CCCc1cc(-c2cc3n(C)c(=O)c4ccccc4n3n2)ccn1.Cl [Example 4, 2-(2-propyl-pyridin-4-yl)-4-methyl-4H-pyrazolo[1,5-a]quinazolin-5-one]	< 1000	> 250
Cl.Cn1c(=O)c2ccccc2n2nc(-c3ccnc(C4CC4)c3)cc12 [Example 5, 2-(2-Cyclopropyl-pyridin-4-yl)-4-methyl-4H-pyrazolo[1,5-a]quinazolin-5-one]	< 1000	248 to 251
Cl.Cn1c(=O)c2ccccc2n2nc(-c3ccnc(C4CCC4)c3)cc12 [Example 6, 2-(2-cyclobutyl-pyridin-4-yl)-4-methyl-4H-pyrazolo[1,5-a]quinazolin-5-one]	< 1000	236 to 244
C=C(C)c1cc(-c2cc3n(C)c(=O)c4ccccc4n3n2)ccn1 [Example 10, 2-(2-Isopropenyl-pyridin-4-yl)-4-methyl-4H-pyrazolo[1,5-a]quinazolin-5-one]	< 1000	
CC(C)c1cc(-c2cc3n(C)c(=O)c4ccccc4n3n2)ccn1.Cl [Example 11, 2-(2-Isopropyl-pyridin-4-yl)-4-methyl-4H-pyrazolo[1,5-a]quinazolin-5-one]	< 1000	> 250
Cn1c(=O)c2ccccc2n2nc(-c3ccnc(C#N)c3)cc12 [Example 12, 4-(4-Methyl-5-oxo-4,5-dihydro-pyrazolo[1,5-a]quinazolin-2-yl)-pyridine-2-carbonitrile]	< 1000	> 250
COc1cc(-c2cc3n(C)c(=O)c4ccccc4n3n2)ccn1 [Example 14, 2-(2-Methoxy-pyridin-4-yl)-4-methyl-4H-pyrazolo[1,5-a]quinazolin-5-one]	< 1000	> 250
CCOc1cc(-c2cc3n(C)c(=O)c4ccccc4n3n2)ccn1 [Example 15, 2-(2-ethoxy-pyridin-4-yl)-4-methyl-4H-pyrazolo[1,5-a]quinazolin-5-one]	< 1000	180 to 182
CC(C)Oc1cc(-c2cc3n(C)c(=O)c4ccccc4n3n2)ccn1 [Example 16, 2-(2-Isopropoxy-pyridin-4-yl)-4-methyl-4H-pyrazolo[1,5-a]quinazolin-5-one]	< 1000	173 to 176
Cn1c(=O)c2ccccc2n2nc(-c3ccnc(OC4CCC4)c3)cc12 [Example 17, 2-(2-Cyclobutoxy-pyridin-4-yl)-4-methyl-4H-pyrazolo[1,5-a]quinazolin-5-one]	< 1000	218 to 222
Cn1c(=O)c2ccccc2n2nc(-c3ccnc(OCC4CC4)c3)cc12 [Example 19, 2-(2-Cyclopropylmethoxy-pyridin-4-yl)-4-methyl-4H-pyrazolo[1,5-a]quinazolin-5-one]	< 1000	185 to 189
Cn1c(=O)c2ccccc2n2nc(-c3ccnc(OCC(F)(F)F)c3)cc12 [Example 21, 4-Methyl-2-[2-(2,2,2-trifluoro-ethoxy)-pyridin-4-yl]-4H-pyrazolo[1,5-a]quinazolin-5-one]	< 1000	219 to 223
Cn1c(=O)c2ccccc2n2nc(-c3ccnc(OCC(F)F)c3)cc12 [Example 22, 4-Methyl-2-[2-(2,2-difluoro-ethoxy)-pyridin-4-yl]-4H-pyrazolo[1,5-a]quinazolin-5-one]	< 1000	209 to 213

Other lines, results leading:

IC50 [1] [nM]	melting point [°C]	Compound
< 1000		Cn1c(=O)c2cc(Cl)ccc2n2nc(-c3ccnc(C(F)(F)F)c3)cc12 [Example 35]
< 1000		Cn1c(=O)c2cc(Br)ccc2n2nc(-c3ccnc(C(F)(F)F)c3)cc12 [Example 39]
< 1000		Cn1c(=O)c2ccc(Cl)cc2n2nc(-c3ccnc(C(F)(F)F)c3)cc12 [Example 56, 8-Chloro-4-methyl-2-(2-trifluoromethyl-pyridin-4-yl)-4H-pyrazolo[1,5-a]quinazolin-5-one]
< 1000		Cn1c(=O)c2ccc(Br)cc2n2nc(-c3ccnc(C(F)(F)F)c3)cc12 [Example 58, 8-Bromo-4-methyl-2-(2-trifluoromethyl-pyridin-4-yl)-4H-pyrazolo[1,5-a]quinazolin-5-one]
< 1000		CN(C)C(=O)c1ccc2c(=O)n(C)c3cc(-c4ccnc(C(F)(F)F)c4)nn3c2c1 [Example 79, 4-Methyl-5-oxo-2-(2-trifluoromethyl-pyridin-4-yl)-4,5-dihydro-pyrazolo[1,5-a]quinazoline-8-carboxylic Acid Dimethylamide]
< 1000		CNc1cc2c(=O)n(C)c3cc(-c4ccnc(C(F)(F)F)c4)nn3c2cc1OC [Example 94, 8-Methoxy-4-methyl-7-methylamino-2-(2-trifluoromethyl-pyridin-4-yl)-4H-pyrazolo[1,5-a]quinazolin-5-one]
< 1000		Cn1c(=O)c2cc(Cl)ccc2n2nc(-c3ccnc(Cl)c3)cc12 [Example 95, 7-Chloro-2-(2-chloro-pyridin-4-yl)-4-methyl-4H-pyrazolo[1,5-a]quinazolin-5-one]
< 1000		Cn1c(=O)c2cc(Cl)ccc2n2nc(-c3ccnc(C4CC4)c3)cc12 [Example 96]
< 1000		Cn1c(=O)c2cc(Cl)ccc2n2nc(-c3ccnc(OCC(F)(F)F)c3)cc12 [Example 98, 7-Chloro-4-methyl-2-[2-(2,2,2-trifluoro-ethoxy)-pyridin-4-yl]-4H-pyrazolo[1,5-a]quinazolin-5-one]
< 1000		COc1ccc2c(c1)c(=O)n(C)c1cc(-c3ccnc(Cl)c3)nn21 [Example 99, 2-(2-Chloro-pyridin-4-yl)-7-methoxy-4-methyl-4H-pyrazolo[1,5-a]quinazolin-5-one]
< 1000		COc1ccc2c(c1)c(=O)n(C)c1cc(-c3ccnc(C4CC4)c3)nn21 [Example 100, 2-(2-Cyclopropyl-pyridin-4-yl)-7-methoxy-4-methyl-4H-pyrazolo[1,5-a]quinazolin-5-one]
< 1000		Cc1cc(-c2cc3n(C)c(=O)c4ccccc4n3n2)cc(Cl)n1 [Example 105, 2-(2-Chloro-6-methyl-pyridin-4-yl)-4-methyl-4H-pyrazolo[1,5-a]quinazolin-5-one]
< 1000		Cc1cc(-c2cc3n(C)c(=O)c4ccccc4n3n2)cc(C2CC2)n1 [Example 106, 2-(2-Cyclopropyl-6-methyl-pyridin-4-yl)-4-methyl-4H-pyrazolo[1,5-a]quinazolin-5-one]
< 1000		Cn1c(=O)c2ccccc2n2nc(-c3ccncc3Cl)cc12 [Example 108, 2-(3-Chloro-pyridin-4-yl)-4-methyl-4H-pyrazolo[1,5-a]quinazolin-5-one]
< 1000		Cn1c(=O)c2ccc(F)cc2n2nc(-c3ccnc(Cl)c3)cc12 [Example 117, 2-(2-Chloro-pyridin-4-yl)-8-fluoro-4-methyl-4H-pyrazolo[1,5-a]quinazolin-5-one]
